# Tested on: 496974-208-R-J2-PDC complex spheroids, growth % test/control
# Assay: Anticancer human tumor 496974-208-R-J2-PDC patient-derived pancreatic carcinoma cell line growth inhibition [CLK]
# Conditions: for IC50: curve of first compound; for viability, T/C: stronger effect = lower value
# From the text: A high-throughput screen of multi-cell type tumor spheroids was designed to identify active combinations of […] and targeted small molecules. Complex spheroids include a stromal component modeled by human endothelial cells (HUVEC) and fibroblasts modeled by human mesenchymal stem cells (MSCs). The concentration ranges selected for each drug and investigational agent were based upon clinically achievable concentrations if the clinical Cmax of the agent was known.
# Compounds. The drugs and investigational agents: cirtuvivint (SM08502; NSC835563), CC-671 (NSC850746), vemurafenib (NSC761431), tapotoclax (NSC804041), sotorasib (NSC818433), adagrasib (NSC831453), MRTX-1133 (NSC836407), BAY2416964 (NSC825713), copanlisib (NSC816437), inavolisib (NSC800729), abemaciclib (NSC768073), osimertinib (NSC779217), entinostat (NSC756642), eltanexor (KPT-8602, NSC794443), venetoclax (NSC766270), ceralasertib (NSC777638), bortezomib (NSC756655), olaparib (NSC753686), talazoparib (NSC767125), alisertib (NSC759677), peposertib (NSC802822), gemcitabine (NSC613327), 5-fluorouracil (NSC19893), SN-38 (NSC673596), oxaliplatin (NSC266046), paclitaxel (NSC125973), and doxorubicin (NSC123127), were obtained from the National Cancer Institute (NCI) Developmental Therapeutics Program Chemical Repository. The FDA-approved anticancer drug set is available from the Developmental Therapeutics Program at https://dtp.cancer.gov/organization/dscb/obtaining/available plates.htm. […] The stock solutions were prepared in dimethyl sulfoxide (DMSO, Sigma-Aldrich, St. Louis, MO, cat. D2650), except for the platinum complexes which were prepared in saline (Quality Biological, Gaithersburg, MD, cat. 114-055-101), at 800-fold the tested concentration and stored at -70 degrees C prior to their use. All drugs and investigational agents were tested over a range starting from a high concentration at or near the clinical Cmax and decreasing in half-log increments. If the clinical Cmax for an agent had not been determined, the highest concentration tested was 10 microM.
# Cell Culture. All cells were maintained in an incubator at 37 degrees C and 5% CO2 with 95% humidity. The PDC lines were cultured according to standard operating procedures established by the NCI PDMR. Briefly, all PDCs were thawed and cultured in Matrigel-coated flasks prepared with a working solution of 1X Ham's F-12 nutrient mix, without supplementation (Invitrogen, Waltham, MA, cat. 11765054), 100 U/mL penicillin-streptomycin (Invitrogen, cat. 15140122), and 2.5% Matrigel (Corning Inc., Corning, NY, cat. 354248) for the first three passages. The 947758-054-R-J2-PDC line was cultured in 6B/Colon 1A media, which includes advanced DMEM/F-12 (Thermo Fisher Scientific, cat. 12634028), 10 mM HEPES (Thermo Fisher Scientific, cat. 15630080), 1X GlutaMAX supplement (Thermo Fisher Scientific, cat. 35050061), 0.1 mg/mL primocin (InvivoGen, cat. ant-pm-2), 10% defined fetal bovine serum, heat inactivated (HyClone Laboratories Inc., cat. SH30070.03HI), 1.25 mM N-Acetyl-L-cysteine (Sigma-Aldrich, cat. A9165), 10 mM nicotinamide (Sigma-Aldrich, cat. N0636), 1X B-27 supplement (Thermo Fisher Scientific, cat. 17504044), 1X N-2 supplement (Thermo Fisher Scientific, cat. 17502048), and 10 microM Y-27632 dihydrochloride (Tocris Bioscience, cat. 1254). The 876862-298-R-J1-PDC was cultured in 6E media, which includes all 6B/Colon 1A media components plus 50% L-WRN conditioned media (ATCC, cat. CRL-3276), 50 ng/mL recombinant human EGF recombinant protein (hEGF; Thermo Fisher Scientific, cat. PHG0311), 10 ng/mL recombinant human fibroblast growth factor 10 (hGFG-10; PeproTech, cat. 100-26), 1 ng/mL recombinant human fibroblast growth factor 2 (hFGF-2; PeproTech, cat. 100-18B), and 1 µM prostaglandin E2 (PGE2; Tocris, cat. 2296). The 227483-062-R1-J1-PDC line was cultured in Panc media, containing all 6E components except hFGF-2, with the addition of 500 nM SB-431542 (Selleckchem, cat. S1067) and 10 nM gastrin (Tocris, cat. 3006). […]
# [1] = second compound 0.0316 µM, first compound 0.0316 µM
# [2] = second compound 0.0316 µM, first compound 0.1 µM
# [3] = second compound 0.0316 µM, first compound 0.316 µM
# [4] = second compound 0.0316 µM, first compound 1 µM
# [5] = second compound 0.0316 µM, first compound 3.16 µM
# [6] = second compound 0.0316 µM, first compound 10 µM
# [7] = second compound 0.1 µM, first compound 0.0316 µM
# [8] = second compound 0.1 µM, first compound 0.1 µM
# [9] = second compound 0.1 µM, first compound 0.316 µM
# [10] = second compound 0.1 µM, first compound 1 µM
# [11] = second compound 0.1 µM, first compound 3.16 µM
# [12] = second compound 0.1 µM, first compound 10 µM
# [13] = second compound 0.316 µM, first compound 0.0316 µM
# [14] = second compound 0.316 µM, first compound 0.1 µM
# [15] = second compound 0.316 µM, first compound 0.316 µM
# [16] = second compound 0.316 µM, first compound 1 µM
# [17] = second compound 0.316 µM, first compound 3.16 µM
# [18] = second compound 0.316 µM, first compound 10 µM
# [19] = second compound 1 µM, first compound 0.0316 µM
# [20] = second compound 1 µM, first compound 0.1 µM
# [21] = second compound 1 µM, first compound 0.316 µM
# [22] = second compound 1 µM, first compound 1 µM
# [23] = second compound 1 µM, first compound 3.16 µM
# [24] = second compound 1 µM, first compound 10 µM
# [25] = second compound 3.16 µM, first compound 0.0316 µM
# [26] = second compound 3.16 µM, first compound 0.1 µM
# [27] = second compound 3.16 µM, first compound 0.316 µM
# [28] = second compound 3.16 µM, first compound 1 µM
# [29] = second compound 3.16 µM, first compound 3.16 µM
# [30] = second compound 3.16 µM, first compound 10 µM
# [31] = second compound 10 µM, first compound 0.0316 µM
# [32] = second compound 10 µM, first compound 0.1 µM
# [33] = second compound 10 µM, first compound 0.316 µM
# [34] = second compound 10 µM, first compound 1 µM
# [35] = second compound 10 µM, first compound 3.16 µM
# [36] = second compound 10 µM, first compound 10 µM
# 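Note: spheroids exposed to the drugs for 7 days before readout.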
# 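Throughout, for viability, T/C: 100% = DMSO vehicle control wells.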
structure (smiles),measurement,setting,value
COc1ccc([C@@H](O)c2cc(-c3ncnc4cc(N5CCOCC5)ccc34)c(F)cc2Cl)nn1 + CN1CCN(c2cc(C(=O)Nc3cc4cc(-c5cnn(C)c5)ccc4cn3)ccn2)CC1,IC50,second compound 0.0316 µM,5.97 µM
same,IC50,second compound 0.1 µM,3.47 µM
same,IC50,second compound 0.316 µM,< 0.0316 µM
same,IC50,second compound 1 µM,< 0.0316 µM
same,IC50,second compound 3.16 µM,< 0.0316 µM
same,IC50,second compound 10 µM,< 0.0316 µM
same,"viability, T/C",[1],110%
same,"viability, T/C",[2],101%
same,"viability, T/C",[3],92.9%
same,"viability, T/C",[4],88.7%
same,"viability, T/C",[5],63.6%
same,"viability, T/C",[6],37.7%
same,"viability, T/C",[7],84.8%
same,"viability, T/C",[8],81.4%
same,"viability, T/C",[9],84.2%
same,"viability, T/C",[10],69.9%
same,"viability, T/C",[11],52.2%
same,"viability, T/C",[12],31.5%
same,"viability, T/C",[13],4.25%
same,"viability, T/C",[14],4.3%
same,"viability, T/C",[15],5.59%
same,"viability, T/C",[16],3.72%
same,"viability, T/C",[17],2.53%
same,"viability, T/C",[18],1.66%
same,"viability, T/C",[19],0.41%
same,"viability, T/C",[20],0.45%
same,"viability, T/C",[21],2.89%
same,"viability, T/C",[22],0.48%
same,"viability, T/C",[23],1.17%
same,"viability, T/C",[24],1.46%
same,"viability, T/C",[25],0.36%
same,"viability, T/C",[26],0.61%
same,"viability, T/C",[27],0.67%
same,"viability, T/C",[28],0.54%
same,"viability, T/C",[29],2.79%
same,"viability, T/C",[30],2.82%
same,"viability, T/C",[31],0.19%
same,"viability, T/C",[32],0.34%
same,"viability, T/C",[33],1.74%
same,"viability, T/C",[34],0.3%
same,"viability, T/C",[35],2%
same,"viability, T/C",[36],2.87%
CC(=O)O[C@H]1C(=O)[C@@]2(C)[C@H]([C@H](OC(=O)c3ccccc3)[C@]3(O)C[C@H](OC(=O)[C@H](O)[C@@H](NC(=O)c4ccccc4)c4ccccc4)C(C)=C1C3(C)C)[C@]1(OC(C)=O)CO[C@@H]1C[C@@H]2O + CN1CCN(c2cc(C(=O)Nc3cc4cc(-c5cnn(C)c5)ccc4cn3)ccn2)CC1,IC50,second compound 0.0316 µM,< 0.0316 µM
same,IC50,second compound 0.1 µM,< 0.0316 µM
same,IC50,second compound 0.316 µM,< 0.0316 µM
same,IC50,second compound 1 µM,< 0.0316 µM
same,IC50,second compound 3.16 µM,< 0.0316 µM
same,IC50,second compound 10 µM,< 0.0316 µM
same,"viability, T/C",[1],35.9%
same,"viability, T/C",[2],29.4%
same,"viability, T/C",[3],33.5%
same,"viability, T/C",[4],29.2%
same,"viability, T/C",[5],31.5%
same,"viability, T/C",[6],27.9%
same,"viability, T/C",[7],29.4%
same,"viability, T/C",[8],25.9%
same,"viability, T/C",[9],27.7%
same,"viability, T/C",[10],29.5%
same,"viability, T/C",[11],24.8%
same,"viability, T/C",[12],23.7%
same,"viability, T/C",[13],5.33%
same,"viability, T/C",[14],4.57%
same,"viability, T/C",[15],5.74%
same,"viability, T/C",[16],4.55%
same,"viability, T/C",[17],5.22%
same,"viability, T/C",[18],4.68%
same,"viability, T/C",[19],0.41%
same,"viability, T/C",[20],0.53%
same,"viability, T/C",[21],0.5%
same,"viability, T/C",[22],0.41%
same,"viability, T/C",[23],0.36%
same,"viability, T/C",[24],0.37%
same,"viability, T/C",[25],0.58%
same,"viability, T/C",[26],0.77%
same,"viability, T/C",[27],2.07%
same,"viability, T/C",[28],0.54%
same,"viability, T/C",[29],0.58%
same,"viability, T/C",[30],0.34%
same,"viability, T/C",[31],0.23%
same,"viability, T/C",[32],0.29%
same,"viability, T/C",[33],0.24%
same,"viability, T/C",[34],0.25%
same,"viability, T/C",[35],2.61%
same,"viability, T/C",[36],0.28%
Nc1ccccc1NC(=O)c1ccc(CNC(=O)OCc2cccnc2)cc1 + CNC(=O)c1ccc(Nc2nc(OC3CCCC3)c3c(-c4ccc5nc(C)oc5c4)c[nH]c3n2)c(OC)c1,IC50,second compound 0.0316 µM,4.52 µM
same,IC50,second compound 0.1 µM,4.53 µM
same,IC50,second compound 0.316 µM,4.36 µM
same,IC50,second compound 1 µM,4.23 µM
same,IC50,second compound 3.16 µM,3.34 µM
same,IC50,second compound 10 µM,3.34 µM
same,"viability, T/C",[1],92.7%
same,"viability, T/C",[2],92.8%
same,"viability, T/C",[3],89.9%
same,"viability, T/C",[4],78%
same,"viability, T/C",[5],75.3%
same,"viability, T/C",[6],0.72%
same,"viability, T/C",[7],81.8%
same,"viability, T/C",[8],72.5%
same,"viability, T/C",[9],66.3%
same,"viability, T/C",[10],61.4%
same,"viability, T/C",[11],73.6%
same,"viability, T/C",[12],3.35%
same,"viability, T/C",[13],78.6%
same,"viability, T/C",[14],72.9%
same,"viability, T/C",[15],74.2%
same,"viability, T/C",[16],56.1%
same,"viability, T/C",[17],69.2%
same,"viability, T/C",[18],1.48%
same,"viability, T/C",[19],69.1%
same,"viability, T/C",[20],65.1%
same,"viability, T/C",[21],67.8%
same,"viability, T/C",[22],58.5%
same,"viability, T/C",[23],68.6%
same,"viability, T/C",[24],3%
same,"viability, T/C",[25],63.5%
same,"viability, T/C",[26],59.2%
same,"viability, T/C",[27],55%
same,"viability, T/C",[28],49.7%
same,"viability, T/C",[29],53.5%
same,"viability, T/C",[30],4.03%
same,"viability, T/C",[31],60.2%
same,"viability, T/C",[32],53.4%
same,"viability, T/C",[33],52.1%
same,"viability, T/C",[34],42.9%
same,"viability, T/C",[35],53.2%
same,"viability, T/C",[36],4.38%

# Source: PubChem BioAssay AID2060615 (Molecular Pharmacology Branch, DTP, NCI, 2025)
